Results taken from US20230085307A1, “PYRIDAZINONE COMPOUND AND HERBICIDE” (NISSAN CHEMICAL CORPORATION, priority 2019, published 2023).

Tests used:
late watergrass = assay: Test Example 1: herbicidal activity, application before weed generation under submerged conditions (Table 16, symbol A); assay type: in vivo, late watergrass (Echinochloa oryzicola); conditions: for Herbicidal effect on A: late watergrass (grade 0-5): 320 g/ha applied herbicide; for Herbicidal effect, A: late watergrass: amount of applied herbicide 320 g/ha
In short: (§1)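 Emulsion formulation, water-diluted to set dose, was put onto the flooded surface (4 cm depth, alluvial soil) the same day weeds were sown and 2.5-leaf rice transplanted. After 3 weeks at 25-30 °C under glass, each species was rated 0 (≤5% kill) to 5 (≥90% kill).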

Japanese bulrush = assay: Test Example 1: herbicidal activity, application before weed generation under submerged conditions (Table 16, symbol B); assay type: in vivo, Japanese bulrush (Schoenoplectus juncoides); conditions: for Herbicidal effect on B: Japanese bulrush (grade 0-5): 320 g/ha applied herbicide; for Herbicidal effect, B: Japanese bulrush: amount of applied herbicide 320 g/ha
In short: as §1

oval-leafed pondweed = assay: Test Example 1: herbicidal activity, application before weed generation under submerged conditions (Table 16, symbol C); assay type: in vivo, oval-leafed pondweed (Monochoria vaginalis); conditions: for Herbicidal effect on C: oval-leafed pondweed (grade 0-5): 320 g/ha applied herbicide; for Herbicidal effect, C: oval-leafed pondweed: amount of applied herbicide 320 g/ha
In short: as §1

barnyard grass [1] = assay: Test Example 3: herbicidal effect by foliage application, Wagner pot (Table 18, symbol H); assay type: in vivo, barnyard grass (Echinochloa crus-galli); conditions: for herbicidal effect on H: barnyard grass: amount of applied herbicide 320 g/ha
In short: (§2)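 Plants were sown in alluvial soil held under 0.1–0.5 cm standing water and grown 14 days in a greenhouse at 25–30 °C. An emulsifiable formulation, water-diluted to the set dose, was then sprayed onto the foliage, and effects were scored three weeks later using previously defined criteria.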

Chinese sprangletop = assay: Test Example 3: herbicidal effect by foliage application, Wagner pot (Table 18, symbol D); assay type: in vivo, chinese sprangletop (Leptochloa chinensis); conditions: for herbicidal effect on D: Chinese sprangletop: amount of applied herbicide 320 g/ha
In short: as §2

rice flat sedge = assay: Test Example 3: herbicidal effect by foliage application, Wagner pot (Table 18, symbol E); assay type: in vivo, rice flat sedge (Cyperus iria); conditions: for herbicidal effect on E: rice flat sedge: amount of applied herbicide 320 g/ha
In short: as §2

southern crabgrass = assay: Test Example 5: herbicidal effect by foliage application, plastic box (Table 20, symbol F); assay type: in vivo, southern crabgrass (Digitaria ciliaris); conditions: foliage application; for F: southern crabgrass, herbicidal effect grade: 320 g/ha
In short: (§3)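 Post-emergence foliar test in sterilized diluvial soil. Compound applied as water-diluted emulsion at a predetermined rate to 14-day-old plants; evaluation at three weeks.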

green foxtail = assay: Test Example 5: herbicidal effect by foliage application, plastic box (Table 20, symbol G); assay type: in vivo, green foxtail (Setaria viridis); conditions: foliage application; for G: green foxtail, herbicidal effect grade: 320 g/ha
In short: as §3

barnyard grass [2] = assay: Test Example 5: herbicidal effect by foliage application, plastic box (Table 20, symbol H); assay type: in vivo, barnyard grass (Echinochloa crus-galli); conditions: foliage application; for H: barnyard grass, herbicidal effect grade: 320 g/ha
In short: as §3

wild oat = assay: Test Example 5: herbicidal effect by foliage application, plastic box (Table 20, symbol I); assay type: in vivo, wild oat (Avena fatua); conditions: foliage application; for I: wild oat, herbicidal effect grade: 320 g/ha
In short: as §3

blackgrass = assay: Test Example 5: herbicidal effect by foliage application, plastic box (Table 20, symbol J); assay type: in vivo, blackgrass (Alopecurus myosuroides); conditions: foliage application; for J: blackgrass, herbicidal effect grade: 320 g/ha
In short: as §3

Italian ryegrass = assay: Test Example 5: herbicidal effect by foliage application, plastic box (Table 20, symbol K); assay type: in vivo, Italian ryegrass (Lolium multiflorum); conditions: foliage application; for K: Italian ryegrass, herbicidal effect grade: 320 g/ha
In short: as §3

windgrass = assay: Test Example 5: herbicidal effect by foliage application, plastic box (Table 20, symbol L); assay type: in vivo, windgrass (Apera spica-venti); conditions: foliage application; for L: windgrass, herbicidal effect grade: 320 g/ha
In short: as §3

velvetleaf = assay: Test Example 5: herbicidal effect by foliage application, plastic box (Table 20, symbol M); assay type: in vivo, velvetleaf (Abutilon theophrasti); conditions: foliage application; for M: velvetleaf, herbicidal effect grade: 320 g/ha
In short: as §3

redroot pigweed = assay: Test Example 5: herbicidal effect by foliage application, plastic box (Table 20, symbol N); assay type: in vivo, redroot pigweed (Amaranthus retroflexus); conditions: foliage application; for N: redroot pigweed, herbicidal effect grade: 320 g/ha
In short: as §3

lambsquarters = assay: Test Example 5: herbicidal effect by foliage application, plastic box (Table 20, symbol O); assay type: in vivo, lambsquarters (Chenopodium album); conditions: foliage application; for O: lambsquarters, herbicidal effect grade: 320 g/ha
In short: as §3

chickweed = assay: Test Example 5: herbicidal effect by foliage application, plastic box (Table 20, symbol P); assay type: in vivo, common chickweed (Stellaria media); conditions: foliage application; for P: chickweed, herbicidal effect grade: 320 g/ha
In short: as §3

persian speedwell = assay: Test Example 5: herbicidal effect by foliage application, plastic box (Table 20, symbol R); assay type: in vivo, Persian speedwell (Veronica persica); conditions: foliage application; for R: persian speedwell, herbicidal effect grade: 320 g/ha
In short: as §3

[3] = AAH 320 g/ha, three weeks after application
[4] = AAH 320 g/ha, evaluated three weeks after application

Compound	Herbicidal effect on A: late watergrass (grade 0-5) (late watergrass)	Herbicidal effect on B: Japanese bulrush (grade 0-5) (Japanese bulrush)	Herbicidal effect on C: oval-leafed pondweed (grade 0-5) (oval-leafed pondweed)	herbicidal effect on H: barnyard grass (barnyard grass [1])	herbicidal effect on D: Chinese sprangletop (Chinese sprangletop)	herbicidal effect on E: rice flat sedge (rice flat sedge)	Herbicidal effect, A: late watergrass (late watergrass)	Herbicidal effect, B: Japanese bulrush (Japanese bulrush)	Herbicidal effect, C: oval-leafed pondweed (oval-leafed pondweed)	F: southern crabgrass, herbicidal effect grade (southern crabgrass; three weeks after application)	G: green foxtail, herbicidal effect grade (green foxtail; three weeks after application)	H: barnyard grass, herbicidal effect grade (barnyard grass [2]; three weeks after application)	I: wild oat, herbicidal effect grade (wild oat; three weeks after application)	J: blackgrass, herbicidal effect grade (blackgrass; three weeks after application)	K: Italian ryegrass, herbicidal effect grade (Italian ryegrass; three weeks after application)	L: windgrass, herbicidal effect grade (windgrass; three weeks after application)	M: velvetleaf, herbicidal effect grade (velvetleaf; three weeks after application)	N: redroot pigweed, herbicidal effect grade (redroot pigweed; three weeks after application)	O: lambsquarters, herbicidal effect grade (lambsquarters; three weeks after application)	P: chickweed, herbicidal effect grade (chickweed; three weeks after application)	also measured
COc1cccc(OC)c1-c1sc2ccccc2c1-c1c(O)c(C)nn(C)c1=O [1-158]	0 (Herbicidal rate of 5% or less (almost no effect))	2 (Herbicidal rate of 20% or more and less than 40%)	0 (Herbicidal rate of 5% or less (almost no effect))	–	–	–	–	–	–	–	–	–	–	–	–	–	–	–	–	–	herbicidal effect on H (barnyard grass), rating 0-5 (barnyard grass [1]; 320 g/ha): 2 (Herbicidal rate of 20% or more and less than 40%); herbicidal effect on D (Chinese sprangletop), rating 0-5 (Chinese sprangletop; 320 g/ha): 0 (Herbicidal rate of 5% or less (almost no effect)); herbicidal effect on E (rice flat sedge), rating 0-5 (rice flat sedge; 320 g/ha): 0 (Herbicidal rate of 5% or less (almost no effect)); F: southern crabgrass, herbicidal effect (southern crabgrass; [3]): 0 (Herbicidal rate of 5% or less (almost no effect)); G: green foxtail, herbicidal effect (green foxtail; [3]): 0 (Herbicidal rate of 5% or less (almost no effect)); H: barnyard grass, herbicidal effect (barnyard grass [2]; [3]): 0 (Herbicidal rate of 5% or less (almost no effect)); I: wild oat, herbicidal effect (wild oat; [3]): 0 (Herbicidal rate of 5% or less (almost no effect)); J: blackgrass, herbicidal effect (blackgrass; [3]): 0 (Herbicidal rate of 5% or less (almost no effect)); K: Italian ryegrass, herbicidal effect (Italian ryegrass; [3]): 0 (Herbicidal rate of 5% or less (almost no effect)); L: windgrass, herbicidal effect (windgrass; [3]): 0 (Herbicidal rate of 5% or less (almost no effect)); M: velvetleaf, herbicidal effect (velvetleaf; [3]): 0 (Herbicidal rate of 5% or less (almost no effect)); N: redroot pigweed, herbicidal effect (redroot pigweed; [3]): 0 (Herbicidal rate of 5% or less (almost no effect)); O: lambsquarters, herbicidal effect (lambsquarters; [3]): 0 (Herbicidal rate of 5% or less (almost no effect)); P: chickweed, herbicidal effect (chickweed; [3]): 5 (Herbicidal rate of 90% or more (almost completely withered)); R: persian speedwell, herbicidal effect (persian speedwell; [3]): 5 (Herbicidal rate of 90% or more (almost completely withered))
Cc1nn(C)c(=O)c(-c2c(-c3ccc(OC(F)F)cc3)sc3ccc(F)cc23)c1OCC(F)(F)F [2-302]	3 (Herbicidal rate of 40% or more and less than 70%)	0 (Herbicidal rate of 5% or less (almost no effect))	0 (Herbicidal rate of 5% or less (almost no effect))	3 (Herbicidal rate of 40% or more and less than 70%)	0 (Herbicidal rate of 5% or less (almost no effect))	3 (Herbicidal rate of 40% or more and less than 70%)	–	–	–	–	–	–	–	–	–	–	–	–	–	–	F: southern crabgrass, herbicidal effect (criteria 0-5) (southern crabgrass; [4]): 0 (Herbicidal rate of 5% or less (almost no effect)); G: green foxtail, herbicidal effect (criteria 0-5) (green foxtail; [4]): 0 (Herbicidal rate of 5% or less (almost no effect)); H: barnyard grass, herbicidal effect (criteria 0-5) (barnyard grass [2]; [4]): 0 (Herbicidal rate of 5% or less (almost no effect)); I: wild oat, herbicidal effect (criteria 0-5) (wild oat; [4]): 0 (Herbicidal rate of 5% or less (almost no effect)); J: blackgrass, herbicidal effect (criteria 0-5) (blackgrass; [4]): 0 (Herbicidal rate of 5% or less (almost no effect)); K: Italian ryegrass, herbicidal effect (criteria 0-5) (Italian ryegrass; [4]): 0 (Herbicidal rate of 5% or less (almost no effect)); L: windgrass, herbicidal effect (criteria 0-5) (windgrass; [4]): 0 (Herbicidal rate of 5% or less (almost no effect)); M: velvetleaf, herbicidal effect (criteria 0-5) (velvetleaf; [4]): 0 (Herbicidal rate of 5% or less (almost no effect)); N: redroot pigweed, herbicidal effect (criteria 0-5) (redroot pigweed; [4]): 3 (Herbicidal rate of 40% or more and less than 70%); O: lambsquarters, herbicidal effect (criteria 0-5) (lambsquarters; [4]): 1 (Herbicidal rate of 5% or more and less than 20%); P: chickweed, herbicidal effect (criteria 0-5) (chickweed; [4]): 4 (Herbicidal rate of 70% or more and less than 90%); R: persian speedwell, herbicidal effect (criteria 0-5) (persian speedwell; [4]): 1 (Herbicidal rate of 5% or more and less than 20%)
CSCCOc1ccc(-c2sc3ccc(F)cc3c2-c2c(OCCSC)c(C)nn(C)c2=O)cc1 [2-420]	–	–	–	5 (Herbicidal rate of 90% or more (almost completely withered))	3 (Herbicidal rate of 40% or more and less than 70%)	4 (Herbicidal rate of 70% or more and less than 90%)	2 (Herbicidal rate of 20% or more and less than 40%)	3 (Herbicidal rate of 40% or more and less than 70%)	0 (Herbicidal rate of 5% or less (almost no effect))	4 (Herbicidal rate of 70% or more and less than 90%)	4 (Herbicidal rate of 70% or more and less than 90%)	5 (Herbicidal rate of 90% or more (almost completely withered))	0 (Herbicidal rate of 5% or less (almost no effect))	4 (Herbicidal rate of 70% or more and less than 90%)	1 (Herbicidal rate of 5% or more and less than 20%)	4 (Herbicidal rate of 70% or more and less than 90%)	4 (Herbicidal rate of 70% or more and less than 90%)	5 (Herbicidal rate of 90% or more (almost completely withered))	5 (Herbicidal rate of 90% or more (almost completely withered))	4 (Herbicidal rate of 70% or more and less than 90%)	R: persian speedwell, herbicidal effect grade (persian speedwell; three weeks after application): 4 (Herbicidal rate of 70% or more and less than 90%)
COc1ccccc1-c1sc2cc(F)ccc2c1-c1c(OC(=O)N2CCOCC2)c(C)nn(C)c1=O [3-025]	–	–	–	3 (Herbicidal rate of 40% or more and less than 70%)	0 (Herbicidal rate of 5% or less (almost no effect))	2 (Herbicidal rate of 20% or more and less than 40%)	0 (Herbicidal rate of 5% or less (almost no effect))	0 (Herbicidal rate of 5% or less (almost no effect))	3 (Herbicidal rate of 40% or more and less than 70%)	0 (Herbicidal rate of 5% or less (almost no effect))	0 (Herbicidal rate of 5% or less (almost no effect))	0 (Herbicidal rate of 5% or less (almost no effect))	0 (Herbicidal rate of 5% or less (almost no effect))	0 (Herbicidal rate of 5% or less (almost no effect))	0 (Herbicidal rate of 5% or less (almost no effect))	0 (Herbicidal rate of 5% or less (almost no effect))	0 (Herbicidal rate of 5% or less (almost no effect))	1 (Herbicidal rate of 5% or more and less than 20%)	0 (Herbicidal rate of 5% or less (almost no effect))	3 (Herbicidal rate of 40% or more and less than 70%)	R: persian speedwell, herbicidal effect grade (persian speedwell; three weeks after application): 0 (Herbicidal rate of 5% or less (almost no effect))
